Counter-ions that a name gives are not always drawn.
Target: T1, SOS1 (Homo sapiens, UniProt Q07889)
T1 sequence (Q07889 1-1333): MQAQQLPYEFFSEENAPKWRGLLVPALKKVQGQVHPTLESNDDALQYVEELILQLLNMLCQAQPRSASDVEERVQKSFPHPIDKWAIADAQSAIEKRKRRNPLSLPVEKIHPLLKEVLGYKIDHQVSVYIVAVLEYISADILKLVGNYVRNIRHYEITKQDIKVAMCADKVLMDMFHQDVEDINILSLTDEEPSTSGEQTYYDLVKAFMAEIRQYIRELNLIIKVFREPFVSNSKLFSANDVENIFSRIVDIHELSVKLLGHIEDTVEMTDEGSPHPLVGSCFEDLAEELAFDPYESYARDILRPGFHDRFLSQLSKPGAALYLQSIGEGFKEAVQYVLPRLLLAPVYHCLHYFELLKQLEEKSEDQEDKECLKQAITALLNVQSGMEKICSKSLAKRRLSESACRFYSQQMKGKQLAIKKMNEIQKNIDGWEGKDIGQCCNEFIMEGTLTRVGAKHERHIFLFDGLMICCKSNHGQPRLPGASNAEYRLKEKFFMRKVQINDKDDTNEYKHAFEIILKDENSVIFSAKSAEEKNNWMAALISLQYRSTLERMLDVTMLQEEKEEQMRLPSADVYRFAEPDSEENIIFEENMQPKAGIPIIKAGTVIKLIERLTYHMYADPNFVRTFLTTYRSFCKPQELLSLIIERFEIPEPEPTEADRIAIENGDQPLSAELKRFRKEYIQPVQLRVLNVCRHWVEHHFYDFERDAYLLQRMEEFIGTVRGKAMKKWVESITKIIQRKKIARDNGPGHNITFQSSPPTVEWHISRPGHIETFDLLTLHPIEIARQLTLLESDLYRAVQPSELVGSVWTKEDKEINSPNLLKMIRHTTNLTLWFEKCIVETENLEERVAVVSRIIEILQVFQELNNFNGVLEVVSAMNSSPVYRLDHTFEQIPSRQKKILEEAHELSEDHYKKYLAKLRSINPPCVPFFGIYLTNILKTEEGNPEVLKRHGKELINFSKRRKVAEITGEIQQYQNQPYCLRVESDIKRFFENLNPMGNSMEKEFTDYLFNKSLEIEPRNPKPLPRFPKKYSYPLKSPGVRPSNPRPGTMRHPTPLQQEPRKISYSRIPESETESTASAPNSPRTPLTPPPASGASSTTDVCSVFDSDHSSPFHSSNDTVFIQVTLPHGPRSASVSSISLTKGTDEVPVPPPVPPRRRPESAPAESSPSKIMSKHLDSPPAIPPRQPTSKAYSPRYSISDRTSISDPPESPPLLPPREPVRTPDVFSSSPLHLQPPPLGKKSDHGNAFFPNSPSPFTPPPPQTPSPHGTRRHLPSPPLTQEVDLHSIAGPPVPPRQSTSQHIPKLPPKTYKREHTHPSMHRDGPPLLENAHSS
Experiment: biochemical

Structure (SMILES)	IC50 [nM]
C[C@@H](Nc1nnc(N2CCC(CO)C2)c2cc(=O)n(C3(C)CC3)cc12)c1cccc(C(F)(F)CO)c1 (stereo partly drawn) [Example 228, 4-(((R)-1-(3-(1,1-difluoro-2-hydroxyethyl)phenyl)ethyl)amino)-1-(3-(hydroxymethyl)pyrrolidin-1-yl)-6-(1-methylcyclopropyl) pyrido[3,4-d]pyridazin-7(6H)-one]	4.4
Cc1c(C(F)F)cccc1[C@@H](C)Nc1nnc(N2CCN(C3CC3)CC2)c2cc(=O)n(C3CC3)cc12 [Example 212, (R)-6-cyclopropyl-1-(4-cyclopropylpiperazin-1-yl)-4-((1-(3-(difluoromethyl)-2-methylphenyl)ethyl)amino)pyrido[3,4-d]pyridazin-7(6H)-one]	11.9
C[C@@H](Nc1nnc(N2CC3(CC(O)C3)C2)c2cc(=O)n(C3(C)CC3)cc12)c1cccc(C(F)F)c1F [Example 196, (R)-4-((1-(3-(difluoromethyl)-2-fluorophenyl)ethyl)amino)-1-(6-hydroxy-2-azaspiro[3.3]heptan-2-yl)-6-(1-methylcyclopropyl) pyrido[3,4-d]pyridazin-7(6H)-one]	3.7
C[C@@H](Nc1nnc(N2CCC3(C2)CS(=O)(=O)C3)c2cc(=O)n(C3(C)CC3)cc12)c1cccc(C(F)F)c1F [Example 197, (R)-4-((1-(3-(difluoromethyl)-2-fluorophenyl)ethyl)amino)-1-(2,2-dioxido-2-thia-6-azaspiro[3.4]octan-6-yl)-6-(1-methylcyclopropyl) pyrido[3,4-d]pyridazin-7(6H)-one]	5
Cc1c(C#N)cccc1[C@@H](C)Nc1nnc(N2CCN(C3CCCC3)CC2)c2cc(=O)n(C3CC3)cc12 [Example 101, (R)-3-(1-((1-(4-cyclopentylpiperazin-1-yl)-6-cyclopropyl-7-oxo-6,7-dihydropyrido[3,4-d]pyridazin-4-yl)amino)ethyl)-2-methylbenzonitrile]	8.9
CC(C)n1cc2c(N[C@H](C)c3cccc(C(F)F)c3F)nnc(N3CCN(C)CC3)c2cc1=O [Example 114, (R)-4-((1-(3-(difluoromethyl)-2-fluorophenyl)ethyl)amino)-6-isopropyl-1-(4-methylpiperazin-1-yl)pyrido[3,4-d]pyridazin-7(6H)-one formate]	6
Cc1c(C#N)cccc1[C@@H](C)Nc1nnc(N2CCCC2)c2cc(=O)n(C3CC3)cc12 [Example 37, (R)-3-(1-((6-cyclopropyl-7-oxo-1-(pyrrolidin-1-yl)-6,7-dihydropyrido[3,4-d]pyridazin-4-yl)amino)ethyl)-2-methylbenzonitrile]	9.2
C[C@@H](Nc1nnc(N2CCS(=O)(=O)CC2)c2cc(=O)n(C3CC3)cc12)c1cccc(C(F)F)c1F [Example 24, (R)-6-cyclopropyl-4-((1-(3-(difluoromethyl)-2-fluorophenyl)ethyl)amino)-1-(1,1-dioxidothiomorpholino)pyrido[3,4-d]pyridazin-7(6H)-one]	12.7
Cc1c([C@@H](C)Nc2nnc(N3CCN(C4CCC4)CC3)c3cc(=O)n(C4(C)CC4)cc23)cccc1C(F)(F)F [Example 94, (R)-1-(4-cyclobutylpiperazin-1-yl)-4-((1-(2-methyl-3-(trifluoromethyl)phenyl)ethyl)amino)-6-(1-methylcyclopropyl) pyrido[3,4-d]pyridazin-7(6H)-one]	7.3
C[C@@H](Nc1nnc(N2CC3CN(C)CC3C2)c2cc(=O)n(C3(C)CC3)cc12)c1cccc(C(F)F)c1F (stereo partly drawn) [Example 206, 4-(((R)-1-(3-(difluoromethyl)-2-fluorophenyl)ethyl)amino)-6-(1-methylcyclopropyl)-1-(5-methylhexahydropyrrolo[3,4-c]pyrrol-2(1H)-yl)pyrido[3,4-d]pyridazin-7(6H)-one]	4.9
Cc1c([C@@H](C)Nc2nnc(N3CCS(=O)(=O)CC3)c3cc(=O)n(C4(C)CC4)cc23)cccc1C(F)(F)F [Example 68, (R)-1-(1,1-dioxidothiomorpholino)-4-((1-(2-methyl-3-(trifluoromethyl)phenyl)ethyl)amino)-6-(1-methylcyclopropyl) pyrido[3,4-d]pyridazin-7(6H)-one]	18.9
